According to patent publication US20220107317A1, “COMPOSITIONS AND METHODS FOR DIAGNOSING AND TREATING CORONAVIRUS DISEASE 2019” (priority 2020, published 2022):

B1: T2 peptide (peptide)
peptide: DLSGFVRPDPVIISSPLSTFFSDAGYKSLLKITMTQSTVPLNLIRVHLMVAVEGHLFQKSFQASPNLAYTFIWDKTDAYGQRVYGLSDAVVSVGFEYETCPSLILWEKRTALLQGFELD
modifications: not checked

What was measured:
[1] = system: nCoV-S Luc pseudovirus of SARS-CoV-2; format: cell-based
SARS-CoV-2 spike protein = SARS-CoV-2 spike protein (Severe acute respiratory syndrome coronavirus 2, UniProt P0DTC2)
[2] = target: SARS-CoV-2 spike protein (SARS-CoV-2), P0DTC2

Row | Molecule | inhibition of infection of OECM1 cells [1] | biosensing sensitivity (SARS-CoV-2 spike protein) | concentration of SARS-CoV-2 spike protein at which binding activity is shown (SARS-CoV-2 spike protein) | biosensing sensitivity (ng in 1 µL per test) [2] | lowest spike protein concentration showing binding activity [2]
1 | DLSGFVRPDPVIISSPLSTFFSDAGYKSLLKITMTQSTVPLNLIRVHLMVAVEG HLFQKSFQASPNLAYTFIWDKTDAYGQRVYGLSDAVVSVGFEYETCPSLILW EKRTALLQGFELD [T2 peptide] | significantly inhibited | 0.1 ng in 1 μL per test | 0.1 pM |  | 
2 | B1 |  |  |  | 0.1 | 0.1 pM
